Laboratory results: the supplement of paper PMC6045584
± gives the standard deviation of the averaged measurements.

Legend:
[1] = compound: COc1cc2c(cc1O)CC[C@@H]1[C@@H]2CC[C@]2(C)[C@@H](O)CC[C@@H]12 [2-METHOXYESTRADIOL]; experiment: surviving fraction relative to DMSO-only wells; higher = less growth inhibition; conditions: exposure time: 5 days
Method in brief: (§1)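 Inhibitors were tested at 0.5, 1, 5, 10, 50, 100, 500 and 1000 nM, applied continuously for five days beginning 24 hours after log-phase tumour cells were seeded at 250–500 per well in 384-well plates. CellTiter-Glo luminescence served as the viability measure, expressed as surviving fraction against the median of DMSO-only wells. Each line, screened three times, was kept only with replicate Pearson r >0.7 and median Z' >0.3.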

[2] = compound: COc1ccc(C2=N[C@@H](c3ccc(Cl)cc3)[C@@H](c3ccc(Cl)cc3)N2C(=O)N2CCNC(=O)C2)c(OC(C)C)c1 [NUTLIN3]; experiment: as above; conditions: exposure time: 5 days
Method in brief: as §1

Test System | surviving fraction ([1]; 0.5 nM) | surviving fraction ([1]; 1 nM) | surviving fraction ([1]; 5 nM) | surviving fraction ([1]; 10 nM) | surviving fraction ([1]; 50 nM) | surviving fraction ([1]; 100 nM) | surviving fraction ([1]; 500 nM) | surviving fraction ([1]; 1000 nM) | surviving fraction ([2]; 0.5 nM) | surviving fraction ([2]; 1 nM) | surviving fraction ([2]; 5 nM) | surviving fraction ([2]; 10 nM) | surviving fraction ([2]; 50 nM) | surviving fraction ([2]; 100 nM) | surviving fraction ([2]; 500 nM) | surviving fraction ([2]; 1000 nM)
CAL72 BONE | 1.03 ± 0.092 | 0.999 ± 0.14 | 1.01 ± 0.11 | 1.02 ± 0.13 | 1.05 ± 0.099 | 1.02 ± 0.18 | 0.848 ± 0.12 | 0.447 ± 0.2 | 1.09 ± 0.029 | 1.07 ± 0.033 | 1.1 ± 0.037 | 1.08 ± 0.055 | 1.08 ± 0.027 | 1.13 ± 0.043 | 1.1 ± 0.084 | 1.11 ± 0.024
CAL120 BREAST | 0.915 ± 0.051 | 0.912 ± 0.083 | 0.944 ± 0.076 | 0.927 ± 0.029 | 0.931 ± 0.071 | 0.933 ± 0.021 | 0.676 ± 0.025 | 0.316 ± 0.03 | 0.921 ± 0.03 | 0.919 ± 0.051 | 0.933 ± 0.039 | 0.924 ± 0.02 | 0.9877 ± 0.005 | 0.9757 ± 0.0032 | 0.981 ± 0.012 | 0.977 ± 0.029
CASKI CERVIX | 0.889 ± 0.044 | 0.923 ± 0.029 | 0.899 ± 0.078 | 0.939 ± 0.063 | 1.02 ± 0.057 | 1.05 ± 0.052 | 0.683 ± 0.1 | 0.0593 ± 0.004 | 0.945 ± 0.0061 | 0.899 ± 0.053 | 0.9873 ± 0.0035 | 0.979 ± 0.027 | 1.04 ± 0.074 | 1.05 ± 0.026 | 0.972 ± 0.042 | 0.988 ± 0.05
CHLA90 AUTONOMIC GANGLIA | 0.969 ± 0.059 | 0.89 ± 0.077 | 0.879 ± 0.074 | 0.888 ± 0.022 | 0.997 ± 0.047 | 0.998 ± 0.029 | 0.896 ± 0.08 | 0.663 ± 0.005 | 1.02 ± 0.018 | 1.05 ± 0.043 | 1 ± 0.039 | 0.923 ± 0.025 | 0.987 ± 0.049 | 1.01 ± 0.019 | 1.06 ± 0.022 | 1.02 ± 0.066
CME SYNOVIAL | 1.17 ± 0.12 | 1.01 ± 0.079 | 1.19 ± 0.026 | 1.08 ± 0.014 | 1.26 ± 0.11 | 1.16 ± 0.15 | 0.711 ± 0.14 | 0.38 ± 0.027 | 1.18 ± 0.1 | 1.29 ± 0.17 | 1.32 ± 0.16 | 1.24 ± 0.13 | 1.36 ± 0.16 | 1.44 ± 0.19 | 1.4 ± 0.073 | 1.22 ± 0.09
COLO320DM LARGE INTESTINE | 1.14 ± 0.11 | 1.11 ± 0.12 | 1.08 ± 0.15 | 1.08 ± 0.078 | 1.09 ± 0.15 | 0.965 ± 0.056 | 0.3693 ± 0.0033 | 0.266 ± 0.0093 | 1.11 ± 0.093 | 1.07 ± 0.019 | 1.08 ± 0.079 | 1.1 ± 0.16 | 1.15 ± 0.16 | 1.21 ± 0.069 | 1.12 ± 0.065 | 1.19 ± 0.17
DU4475 BREAST | 0.835 ± 0.14 | 0.807 ± 0.045 | 0.849 ± 0.11 | 0.901 ± 0.23 | 0.782 ± 0.17 | 0.746 ± 0.066 | 0.452 ± 0.12 | 0.114 ± 0.044 | 0.825 ± 0.3 | 0.909 ± 0.2 | 1 ± 0.52 | 1.13 ± 0.49 | 0.965 ± 0.39 | 1.12 ± 0.51 | 0.832 ± 0.42 | 0.673 ± 0.47
H23 LUNG | 0.97 ± 0.025 | 0.949 ± 0.017 | 1 ± 0.035 | 0.963 ± 0.039 | 0.975 ± 0.06 | 1.03 ± 0.021 | 0.749 ± 0.019 | 0.265 ± 0.004 | 1.02 ± 0.062 | 1.01 ± 0.056 | 1.02 ± 0.034 | 1.04 ± 0.048 | 1.08 ± 0.055 | 1.09 ± 0.085 | 1.05 ± 0.044 | 0.912 ± 0.031
HCC78 LUNG | 0.781 ± 0.22 | 0.786 ± 0.076 | 0.866 ± 0.094 | 1.02 ± 0.24 | 0.827 ± 0.14 | 0.759 ± 0.14 | 0.298 ± 0.087 | 0.0893 ± 0.036 | 1 ± 0.075 | 0.918 ± 0.053 | 0.918 ± 0.19 | 0.883 ± 0.18 | 0.946 ± 0.12 | 0.877 ± 0.11 | 0.889 ± 0.12 | 0.941 ± 0.07
HCC202 BREAST | 1.1 ± 0.39 | 1.22 ± 0.36 | 1.12 ± 0.29 | 1.02 ± 0.19 | 1.23 ± 0.062 | 1.04 ± 0.27 | 0.713 ± 0.32 | 0.564 ± 0.23 | 1.1 ± 0.15 | 1.07 ± 0.14 | 1.14 ± 0.14 | 1.15 ± 0.17 | 1.2 ± 0.12 | 1.27 ± 0.13 | 1.23 ± 0.16 | 1.23 ± 0.21
